Literature values as cited in patent US11998562B2 (priority 2021, dated 2024).
“Also recorded” adds a separate entry of the source.

Assays:
[1] = test system: SARS-CoV; settings: HAE cells; read-out: IC50, inhibition of SARS-CoV replication
[2] = oral delivery

SMILES: CCC(CC)COC(=O)[C@H](C)N[P@](=O)(OC[C@H]1O[C@@](C#N)(c2ccc3c(N)ncnn23)[C@H](O)[C@@H]1O)Oc1ccccc1 [Remdesivir, 2-Ethylbutyl (2S)-2-{[(S)-{[(2R,3S,4R,5R)-5-(4-aminopyrrolo[2,1-f][1,2,4]triazin-7-yl)-5-cyano-3,4-dihydroxytetrahydrofuran-2-yl]methoxy}(phenoxy)phosphoryl]amino}propanoate]
- IC50 [1]: 69 nM
- solubility in water: practically insoluble; also recorded: poorly water soluble
- first-pass clearance [2]: complete
